One assay in a line: cells. The format is functional, cell-based.
A further assay concerns the target T1, Caspase-6 (Homo sapiens, UniProt P55212).
T1 sequence (P55212 whole entry): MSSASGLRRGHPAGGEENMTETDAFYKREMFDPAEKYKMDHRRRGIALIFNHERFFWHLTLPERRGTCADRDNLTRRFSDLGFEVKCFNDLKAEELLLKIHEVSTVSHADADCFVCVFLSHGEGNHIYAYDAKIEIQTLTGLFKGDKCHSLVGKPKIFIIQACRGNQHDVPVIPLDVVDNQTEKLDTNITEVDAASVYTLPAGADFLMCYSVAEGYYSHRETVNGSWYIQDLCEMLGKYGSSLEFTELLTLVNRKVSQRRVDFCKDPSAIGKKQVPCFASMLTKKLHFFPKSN
As to the kind of experiment: human caspase-6 inhibitors, dose response, biochemical, VEID-R110 fluorescence, cherry-pick (AID 720632).

In general, EC50 refers to the concentration that produces a half-maximal response. The term AC50 denotes the concentration giving half of the maximal activity seen.

The source made the active and inactive calls.

Take `CCCCC(=O)NC(c1ccc(N(C)C)cc1)c1ccc2cccnc2c1O` (configuration not stated): in “cells”, the half-maximal effective concentration (EC50) is 3.94 µM (active).

For the molecule `CN(CC(=O)Nc1ccccc1Cl)C(=O)COC(=O)c1ccc([N+](=O)[O-])s1`, the AC50 on Caspase-6 is 4.3 µM (active).

The values above are taken from ChEMBL document CHEMBL1201862, “PubChem BioAssay data set” (2004).
